Test systems include SN12C renal; T-47D breast; HCT-116 colon; NCI-H522 lung; SNB-19 CNS; NCI-H226 lung; U251 CNS; LOX IMVI melanoma; M14 melanoma; HOP-92 NSCLC.
Holding throughout (experiment): growth of human tumour cells (NCI), 48 h

Where “and” joins values, the source holds several entries; their conditions need not be identical. Equal entries are not always repeated.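 Growth conditions: 96-well plates. Treatment: test compound, 48 hours, 5 concentrations. Analysis: linear interpolation between bracketing concentrations; unreached endpoints set to highest concentration. GI50 is the concentration that inhibits growth by half. The concentration for full growth arrest is given as TGI.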

`COc1ccc2c(c1)[nH]c(=O)c1c3cc(OC)ccc3cn21`: the GI50 with SN12C renal is 0.0362 µM; in the experiment on T-47D breast, 1.03 µM; in the experiment on HCT-116 colon it was less than 0.01 µM; with NCI-H522 lung, 0.022 µM; in the experiment on SNB-19 CNS it was 0.0774 µM; with NCI-H226 lung, 0.262 µM. Further, the GI50 is less than 0.01 µM in the experiment on U251 CNS, 0.0269 µM in the experiment on LOX IMVI melanoma, less than 0.01 µM with M14 melanoma and 0.21 µM in the experiment on HOP-92 NSCLC. Moreover, the TGI with SN12C renal was determined as 2.3 µM; in the experiment with T-47D breast it was 3.24 µM; in the experiment on HCT-116 colon, 1.08 µM; with NCI-H522 lung, 0.564 µM; in the experiment on SNB-19 CNS it was 4.32 µM; in the experiment on NCI-H226 lung it was 17.4 µM. Moreover, the TGI with U251 CNS was determined as 1.23 µM; in the experiment with LOX IMVI melanoma, 1.68 µM; in the experiment on M14 melanoma, 1.34 µM; in the experiment with HOP-92 NSCLC it was 2.09 µM.

Turning to `C=CC(=O)NCc1cccc(Nc2ncc(Br)c(NCCCNC(=O)C3CCC3)n2)c1`, the GI50 in the experiment on SN12C renal was 0.621 µM and 0.45 µM; with T-47D breast it was 4.86 µM and 5.07 µM; in the experiment with HCT-116 colon, 1.75 µM and 0.603 µM; in the experiment on SNB-19 CNS, 1.07 µM and 1.38 µM; in the experiment with NCI-H226 lung, 0.999 µM and 0.448 µM; in the experiment on U251 CNS, 0.665 µM and 0.591 µM. The GI50 in the experiment on LOX IMVI melanoma is 0.337 µM and 0.246 µM; in the experiment with M14 melanoma, 1.86 µM and 1.19 µM; with HOP-92 NSCLC, 0.637 µM and 0.596 µM. In addition, the TGI was 12.5 µM and > 25 µM with SN12C renal; 12.5 µM and 22.5 µM in the experiment on T-47D breast; 12.5 µM and 14.3 µM in the experiment with HCT-116 colon; 12.2 µM and 5.52 µM in the experiment with NCI-H522 lung; 12.5 µM and 18.3 µM in the experiment on SNB-19 CNS; 7.85 µM and 11.8 µM in the experiment with NCI-H226 lung. In addition, the TGI in the experiment on U251 CNS is 12.5 µM and 5.94 µM; in the experiment with LOX IMVI melanoma, 4.21 µM and 4.58 µM; in the experiment with M14 melanoma, 10.2 µM and 5.91 µM; in the experiment on HOP-92 NSCLC it was 5.21 µM and 16.4 µM.

Turning to `NC(=O)c1ccc(NN=O)nc1`, the TGI in the experiment on SN12C renal, in the experiment with T-47D breast, in the experiment with HCT-116 colon, in the experiment on NCI-H522 lung, in the experiment on SNB-19 CNS and in the experiment on NCI-H226 lung was greater than 100 µM in each case. Further, the TGI in the experiment with U251 CNS, with LOX IMVI melanoma, in the experiment on M14 melanoma and in the experiment on HOP-92 NSCLC was greater than 100 µM throughout. The GI50 in the experiment with LOX IMVI melanoma and in the experiment with HOP-92 NSCLC was greater than 100 µM in each case.

Turning to `O=[N+]([O-])c1ccc(Sc2ncnc3nc[nH]c23)c2nonc12`, the GI50 in the experiment on SN12C renal was 18.1 µM; with T-47D breast, 2.09 µM; in the experiment on HCT-116 colon, 2.59 µM; in the experiment with NCI-H522 lung, 1.39 µM; in the experiment on SNB-19 CNS it was 20.8 µM; with NCI-H226 lung it was 11.7 µM. In addition, the GI50 with U251 CNS was 14.8 µM; in the experiment with LOX IMVI melanoma, 1.04 µM; with M14 melanoma it was 0.94 µM; in the experiment on HOP-92 NSCLC, 2 µM. The TGI in the experiment with SN12C renal is 53.1 µM; in the experiment on T-47D breast it was greater than 100 µM; with HCT-116 colon it was 12.9 µM; in the experiment on NCI-H522 lung, 2.71 µM; in the experiment with SNB-19 CNS it was 41.9 µM; in the experiment on NCI-H226 lung, 30.5 µM. Further, the TGI is 50.5 µM in the experiment on U251 CNS, 16 µM in the experiment on LOX IMVI melanoma, 13.5 µM with M14 melanoma and 22.2 µM with HOP-92 NSCLC.

On to `COc1cc(OC)c(/C=C\c2ccnc3ccccc23)c(OC)c1`, for which the TGI with SN12C renal turned out to be 16.3 µM; with T-47D breast, 15.6 µM; in the experiment on HCT-116 colon, 13.3 µM; in the experiment on NCI-H522 lung it was 18 µM; with SNB-19 CNS it was 18.2 µM; with NCI-H226 lung it was 16.8 µM. Further, the TGI with U251 CNS worked out at 15.2 µM; in the experiment on LOX IMVI melanoma, 13.6 µM; in the experiment with M14 melanoma, 15.2 µM; in the experiment with HOP-92 NSCLC, 9.91 µM.

Regarding `C=CC(C1=CC(=O)C(OC)=CC1=O)c1ccccc1` (stereo unspecified), the TGI in the experiment with SN12C renal worked out at 28 µM; in the experiment with T-47D breast it was 8.9 µM; in the experiment on HCT-116 colon, 23.4 µM; with NCI-H522 lung, 23.8 µM; in the experiment on SNB-19 CNS it was 29.4 µM; with NCI-H226 lung, 39.6 µM. The TGI stood at 30 µM in the experiment on U251 CNS, 31.7 µM in the experiment on LOX IMVI melanoma, 37.7 µM with M14 melanoma and 11.8 µM in the experiment on HOP-92 NSCLC.

For the compound `COC(=O)C(=O)C(C(=O)C(=O)Nc1nc2ccc(C)cc2s1)c1nc2ccc([N+](=O)[O-])cc2[nH]c1=O` (stereo unspecified), the TGI in the experiment with SN12C renal, with T-47D breast, with HCT-116 colon, in the experiment with NCI-H522 lung, with SNB-19 CNS and in the experiment with NCI-H226 lung was greater than 100 µM throughout. Further, the TGI in the experiment on U251 CNS, with LOX IMVI melanoma, in the experiment with M14 melanoma and with HOP-92 NSCLC was greater than 100 µM throughout.

As to `O=C1c2ccccc2S(=O)(=O)N1CSC(=S)N1CCCCC1`, the GI50 is greater than 46.5 µM in the experiment with SN12C renal; greater than 100 µM in the experiment on T-47D breast; greater than 100 µM in the experiment with HCT-116 colon; 2.05 µM in the experiment with NCI-H522 lung; greater than 100 µM with SNB-19 CNS; greater than 100 µM with NCI-H226 lung. The GI50 in the experiment on U251 CNS, in the experiment on LOX IMVI melanoma, with M14 melanoma and with HOP-92 NSCLC was greater than 100 µM in each case. Moreover, the TGI in the experiment on SN12C renal, in the experiment with T-47D breast, in the experiment on HCT-116 colon, in the experiment on NCI-H522 lung, in the experiment with SNB-19 CNS and with NCI-H226 lung was greater than 100 µM in each case. In addition, the TGI in the experiment on U251 CNS, in the experiment with LOX IMVI melanoma, with M14 melanoma and in the experiment on HOP-92 NSCLC was greater than 100 µM each time.

For `COc1ccc(C(SCC(N)C(=O)O)(c2ccccc2)c2ccccc2)cc1` (stereo unspecified), the GI50 with SN12C renal is 0.199 µM; in the experiment with T-47D breast it was 0.409 µM; in the experiment on HCT-116 colon, 0.043 µM; in the experiment with NCI-H522 lung, 0.104 µM; with SNB-19 CNS, 0.0594 µM; with NCI-H226 lung it was 11.8 µM. Also, the GI50 was 0.0497 µM in the experiment with U251 CNS, 0.668 µM with LOX IMVI melanoma, 0.0309 µM in the experiment on M14 melanoma and 2 µM in the experiment with HOP-92 NSCLC. For the same compound, the TGI was greater than 68.4 µM in the experiment with SN12C renal; greater than 100 µM with T-47D breast; 25.8 µM with HCT-116 colon; greater than 100 µM with NCI-H522 lung; greater than 100 µM in the experiment on SNB-19 CNS; greater than 71.2 µM in the experiment with NCI-H226 lung. Moreover, the TGI was greater than 57 µM in the experiment on U251 CNS, 25.7 µM with LOX IMVI melanoma, 0.126 µM with M14 melanoma and 66.8 µM with HOP-92 NSCLC.

Values taken from PubChem BioAssay (NCI).
